Data as given in US20160002204A1 (Board of Regents, The University of Texas System, priority 2014, published 2016).

Assays:
[1] = molecular target: T1, GLS1 (purified recombinant human GAC) (Homo sapiens, UniProt O94925); experiment: GLS1 enzymatic activity assay (dual-coupled, Amplex UltraRed/resorufin); assay type: biochemical
T1 sequence (O94925 55-598 isoform O94925-3 limits assumed): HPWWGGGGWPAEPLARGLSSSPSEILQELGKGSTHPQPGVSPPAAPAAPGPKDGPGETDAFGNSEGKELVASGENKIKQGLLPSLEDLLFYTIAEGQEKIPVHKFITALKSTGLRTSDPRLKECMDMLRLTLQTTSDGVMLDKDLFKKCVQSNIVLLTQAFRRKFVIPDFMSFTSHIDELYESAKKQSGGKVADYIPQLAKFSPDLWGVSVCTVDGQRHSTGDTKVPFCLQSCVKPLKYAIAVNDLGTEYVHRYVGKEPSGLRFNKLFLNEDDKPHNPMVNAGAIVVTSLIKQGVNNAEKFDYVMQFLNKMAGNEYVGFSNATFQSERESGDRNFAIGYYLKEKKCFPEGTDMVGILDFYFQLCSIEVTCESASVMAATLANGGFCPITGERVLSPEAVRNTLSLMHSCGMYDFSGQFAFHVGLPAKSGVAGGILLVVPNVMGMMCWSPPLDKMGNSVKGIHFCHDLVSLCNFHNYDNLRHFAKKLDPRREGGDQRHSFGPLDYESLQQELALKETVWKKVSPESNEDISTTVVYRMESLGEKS
Method in brief: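 In this coupled fluorometric format, phosphate-activated GAC (2 nM, 50 mM phosphate) is pre-exposed to compound for 10 min before 1 mM glutamine addition. Product is tracked as resorufin (530/590 nm) over time or at 20 min, and potency is derived by logistic fitting.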

A549 cells = experiment: A549 proliferation (viability) assay, Cell Titer Fluor, 72 hours; assay type: cell-based; details: Homo sapiens
Method in brief: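 Compound was added to A549 cells (1000/well, pre-grown 24 h in RPMI 1640 plus 10% dialyzed FBS) at 0.5% DMSO and left 72 h under 37 °C, 5% CO2, ambient O2. Live-cell fluorescence (Cell Titer Fluor) gave the EC50.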

Row | IC50 [1] [nM] | EC50 (A549 cells) [nM] | SMILES
1 | 100 to 500 | 500 to 5000 | CNC(=O)c1cn(CCCCn2ccc(NC(=O)Cc3cccc(OC(F)(F)F)c3)cc2=O)nn1 [Example 40, N-methyl-1-[4-(2-oxo-4-{2-[3-(trifluoromethoxy)phenyl]acetamido}-1,2-dihydropyridin-1-yl)butyl]-1H-1,2,3-triazole-4-carboxamide]
2 | 100 to 500 | 500 to 5000 | Cc1ccc(CNC(=O)c2cn(CC(F)CCn3ccc(NC(=O)OC(C)(C)C)c(F)c3=O)nn2)cn1 (centres unmarked) [Example 298, tert-butyl N-{3-fluoro-1-[3-fluoro-4-(4-{[(6-methylpyridin-3-yl)methyl]carbamoyl}-1H-1,2,3-triazol-1-yl)butyl]-2-oxo-1,2-dihydropyridin-4-yl}carbamate]
3 | 500 to 5000 | > 5000 | Nc1nnc(CCCCn2ccc(NC(=O)Cc3ccccc3)nc2=O)s1 [Example 72, N-{1-[4-(5-amino-1,3,4-thiadiazol-2-yl)butyl]-2-oxo-1,2-dihydropyrimidin-4-yl}-2-phenylacetamide]
4 | < 100 | 500 to 5000 | COc1ccc(CNC(=O)c2cn(CCCCn3ccc(NC(=O)Cc4cccc(OC(F)(F)F)c4)cc3=O)nn2)cc1 [Example 67, N-[(4-methoxyphenyl)methyl]-1-[4-(2-oxo-4-{2-[3-(trifluoromethoxy)phenyl]acetamido}-1,2-dihydropyridin-1-yl)butyl]-1H-1,2,3-triazole-4-carboxamide]
5 | 100 to 500 | 100 to 500 | Cc1ccc(CNC(=O)c2nnc(CCCCn3ccc(NC(=O)CN4CCCCC4)c(F)c3=O)s2)cn1 [Example 462, 5-(4-{3-fluoro-2-oxo-4-[2-(piperidin-1-yl)acetamido]-1,2-dihydropyridin-1-yl}butyl)-N-[(6-methylpyridin-3-yl)methyl]-1,3,4-thiadiazole-2-carboxamide]
6 | < 100 | < 100 | O=C(Nc1ccn(CCC(F)Cn2cc(C(=O)NCc3cccc(OC(F)(F)F)c3)nn2)c(=O)n1)OCc1ccccc1F (centres unmarked) [Example 489, (2-fluorophenyl)methyl N-(1-{3-fluoro-4-[4-({[3-(trifluoro-methoxy)phenyl]methyl}carbamoyl)-1H-1,2,3-triazol-1-yl]butyl}-2-oxo-1,2-dihydropyrimidin-4-yl)carbamate]
7 | < 100 | < 100 | O=C(Cc1ccccc1)Nc1ccn(CCCCc2nnc(C(=O)NCc3cccc(OC(F)(F)F)c3)s2)c(=O)c1 [Example 438, 5-{4-[2-oxo-4-(2-phenylacetamido)-1,2-dihydropyridin-1-yl]butyl}-N-{[3-(trifluoromethoxy)phenyl]methyl}-1,3,4-thiadiazole-2-carboxamide]
8 | 100 to 500 | 500 to 5000 | O=C(CC1CCNCC1)Nc1ccn(CCC(F)Cn2cc(C(=O)NCc3cccc(OC(F)(F)F)c3)nn2)c(=O)c1 (centres unmarked) [Example 280, 1-(2-fluoro-4-{2-oxo-4-[2-(piperidin-4-yl)acetamido]-1,2-dihydropyridin-1-yl}butyl)-N-{[3-(trifluoromethoxy)phenyl]methyl}-1H-1,2,3-triazole-4-carboxamide]
9 | < 100 | < 100 | CC(C(=O)Nc1ccn(CCC(F)Cn2cc(C(=O)NCc3cccc(OC(F)(F)F)c3)nn2)c(=O)c1F)c1ccccc1 (centres unmarked) [Example 316, 1-{2-fluoro-4-[3-fluoro-2-oxo-4-(2-phenylpropanamido)-1,2-dihydropyridin-1-yl]butyl}-N-{[3-(trifluoromethoxy)phenyl]methyl}-1H-1,2,3-triazole-4-carboxamide]
10 | 100 to 500 | 100 to 500 | CC(C)(C)OC(=O)Nc1ccn(CCC(F)Cn2cc(C(=O)NCc3cc(C(F)(F)F)ccn3)nn2)c(=O)c1F (centres unmarked) [Example 320, tert-butyl N-(3-fluoro-1-{3-fluoro-4-[4-({[4-(trifluoromethyl)pyridin-2-yl]methyl}carbamoyl)-1H-1,2,3-triazol-1-yl]butyl}-2-oxo-1,2-dihydropyridin-4-yl)carbamate]
11 | < 100 | < 100 | O=C(CC1CCCC1)Nc1ccn(CCC(F)Cn2cc(C(=O)NCc3cccc(OC(F)(F)F)c3)nn2)c(=O)c1 (centres unmarked) [Example 220, 1-{4-[4-(2-cyclopentylacetamido)-2-oxo-1,2-dihydropyridin-1-yl]-2-fluorobutyl}-N-{[3-(trifluoromethoxy)phenyl]methyl}-1H-1,2,3-triazole-4-carboxamide]
12 | < 100 | 500 to 5000 | CC(=O)Nc1nnc(CCCCn2ccc(NC(=O)CC3CCCC3)c(F)c2=O)s1 [Example 505, 2-cyclopentyl-N-{1-[4-(5-acetamido-1,3,4-thiadiazol-2-yl)butyl]-3-fluoro-2-oxo-1,2-dihydropyridin-4-yl}acetamide]
13 | < 100 | 500 to 5000 | CNC1CCC(CC(=O)Nc2ccn(CCCCn3cc(C(=O)NCc4cccc(OC(F)(F)F)c4)nn3)c(=O)c2)CC1 (centres unmarked) [Example 209, 1-[4-(4-{2-[4-(methylamino)cyclohexyl]acetamido}-2-oxo-1,2-dihydropyridin-1-yl)butyl]-N-{[3-(trifluoromethoxy)phenyl]methyl}-1H-1,2,3-triazole-4-carboxamide]
14 | < 100 | 100 to 500 | O=C(Nc1ccn(CCC(F)Cn2cc(C(=O)NCc3cccc(OC(F)(F)F)c3)nn2)c(=O)c1F)C(=O)N1CC2(CCC2)C1 (centres unmarked) [Example 424, 1-{4-[4-(2-{2-azaspiro[3.3]heptan-2-yl}-2-oxoacetamido)-3-fluoro-2-oxo-1,2-dihydropyridin-1-yl]-2-fluorobutyl}-N-{[3-(trifluoromethoxy)phenyl]methyl}-1H-1,2,3-triazole-4-carboxamide]
15 | 500 to 5000 | 500 to 5000 | O=C(NCc1cccc(OC(F)(F)F)c1)c1cn(CC(F)CCn2ccc(Cn3ccccc3=O)cc2=O)nn1 (centres unmarked) [Example 479, 1-(2-fluoro-4-{2-oxo-4-[(2-oxo-1,2-dihydropyridin-1-yl)methyl]-1,2-dihydropyridin-1-yl}butyl)-N-{[3-(trifluoromethoxy)phenyl]methyl}-1H-1,2,3-triazole-4-carboxamide]
16 | 100 to 500 | > 5000 | O=C(CN1CCCC1=O)Nc1ccn(CCCCn2cc(C(=O)NCc3cccc(C(F)(F)F)c3)nn2)c(=O)c1 [Example 155, 1-(4-{2-oxo-4-[2-(2-oxopyrrolidin-1-yl)acetamido]-1,2-dihydropyridin-1-yl}butyl)-N-{[3-(trifluoromethyl)phenyl]methyl}-1H-1,2,3-triazole-4-carboxamide]
17 | < 100 | 500 to 5000 | Cc1cccc(CNC(=O)c2cn(CC(F)CCn3ccc(NC(=O)Cc4ccccc4)cc3=O)nn2)n1 (centres unmarked) [Example 165, 1-{2-fluoro-4-[2-oxo-4-(2-phenylacetamido)-1,2-dihydropyridin-1-yl]butyl}-N-[(6-methylpyridin-2-yl)methyl]-1H-1,2,3-triazole-4-carboxamide]
18 | < 100 | 100 to 500 | O=C(Cc1cccs1)Nc1ccn(CCCCn2cc(C(=O)NCc3cccc(OC(F)(F)F)c3)nn2)c(=O)c1 [Example 202, 1-(4-{2-oxo-4-[2-(thiophen-2-yl)acetamido]-1,2-dihydropyridin-1-yl}butyl)-N-{[3-(trifluoromethoxy)phenyl]methyl}-1H-1,2,3-triazole-4-carboxamide]
19 | < 100 | < 100 | CCOC(=O)N1CCC(CC(=O)Nc2ccn(CCC(F)Cn3cc(C(=O)NCc4cncc(C(F)(F)F)c4)nn3)c(=O)c2F)CC1 (centres unmarked) [Example 363, ethyl 4-{[(3-fluoro-1-{3-fluoro-4-[4-({[5-(trifluoromethyl)pyridin-3-yl]methyl}carbamoyl)-1H-1,2,3-triazol-1-yl]butyl}-2-oxo-1,2-dihydropyridin-4-yl)carbamoyl]methyl}piperidine-1-carboxylate]
20 | < 100 | < 100 | O=C(Cc1ccccc1)Nc1ccn(CCC(F)Cn2cc(C(=O)NCc3cc(C(F)(F)F)ccn3)nn2)c(=O)c1F (centres unmarked) [Example 323, 1-{2-fluoro-4-[3-fluoro-2-oxo-4-(2-phenylacetamido)-1,2-dihydropyridin-1-yl]butyl}-N-{[4-(trifluoromethyl)pyridin-2-yl]methyl}-1H-1,2,3-triazole-4-carboxamide]
21 | < 100 | < 100 | O=C(CC1CCCCC1)Nc1ccn(CCCCc2nnc(C(=O)NCc3cc(OC(F)(F)F)ccc3F)s2)c(=O)c1 [Example 460, 5-{4-[4-(2-cyclohexylacetamido)-2-oxo-1,2-dihydropyridin-1-yl]butyl}-N-{[2-fluoro-5-(trifluoromethoxy)phenyl]methyl}-1,3,4-thiadiazole-2-carboxamide]
22 | < 100 | 500 to 5000 | O=C(Cc1cccc(OC(F)(F)F)c1)Nc1ccn(CCCCn2cc(C(=O)NCc3cccnc3)nn2)c(=O)c1 [Example 69, 1-[4-(2-oxo-4-{2-[3-(trifluoromethoxy)phenyl]acetamido}-1,2-dihydropyridin-1-yl)butyl]-N-(pyridin-3-ylmethyl)-1H-1,2,3-triazole-4-carboxamide]
